# Reference: US6680304B2, “Disaccharides with anti-arthrosic properties” (Bioiberica, S.A., priority 2000, dated 2004)
# Counter-ions that a name gives are not always drawn.
# What was measured:
# aggrecan = test: Aggrecan accumulation in cell-associated matrix of IL-1-treated chondrocytes in alginate gel, flow cytometry; type: cell-based, human; details: for AGGR (aggrecan): 7 days, average of three measures; for change in accumulation of aggrecan in the CAM: IL-1+ chondrocytes, treated compared to untreated
# Description: (§1) Each of the compounds (Ib, IC) has been tested on human articular cartilage chondrocytes obtained from 2 different donors. The chondrocytes were cultured over 7 days in alginate gel and during this period they were exposed to the different drugs. The cells were then isolated from the gel and tested. The test protocol specified that the chondrocytes were exposed to IL-1 since it has been shown that particularly IL-1-treated chondrocytes, as opposed to non-treated chondrocytes, respond to polysulphated polysaccharides. As a positive control, chondroitin sulphate (CS) and chondroitin polysulphate (CPS) have been used.
# (§2) The accumulation of aggrecan and of type II collagen in the cell-associated matrix (CAM) of the chondrocytes in culture was the primary variable to evaluate the DMOAD (Disease Modifying Osteoarthritic Drug) effects of the 2 compounds. The intracellular levels of IL-1α and β, MMP-13 were also studied.
# (§3) All assays were made by flow cytometry. Specific Fluoresceine Isothiocyanate- (FITC-) or Phycoerythin (PE-) conjugated monoclonal antibodies (Mab) against the different proteins have been used. The results were expressed as Mean Fluorescence Intensity (MFI) of the chondrocyte population after staining with the respective Mab.
# type II collagen = test: Type II collagen accumulation in cell-associated matrix of IL-1-treated chondrocytes in alginate gel, flow cytometry; type: cell-based, human; details: for COLL (type II collagen): 7 days, average of three measures; for change in accumulation of type II collagen in the CAM: IL-1+ chondrocytes, treated compared to untreated
# Description: as §1, §2, §3
# IL-1α = test: Intracellular IL-1α level in IL-1-treated chondrocytes, flow cytometry; type: cell-based, human; details: for IL-1α / IL-Iα: 7 days, average of three measures; for change in levels of IL-1α: IL-1+ chondrocytes, treated compared to untreated
# Description: as §1, §2, §3
# IL-1β = test: Intracellular IL-1β level in IL-1-treated chondrocytes, flow cytometry; type: cell-based, human; details: for IL-1β: 7 days, average of three measures; for change in levels of IL-1β: IL-1+ chondrocytes, treated compared to untreated
# Description: as §1, §2, §3
# MMP-13 = test: Intracellular MMP-13 level in IL-1-treated chondrocytes, flow cytometry; type: cell-based, human; details: for MMP-13: 7 days, average of three measures; for change in levels of MMP-13: IL-1+ chondrocytes, treated compared to untreated
# Description: as §1, §2, §3
# [1] = tested on: human articular chondrocytes; test: Overall DMOAD (cartilage structure modifying) effect on cultured chondrocytes; type: cell-based; details: effects comparable to those of CS and CPS
# Description: as §1, §2, §3
# [2] = Table 1, donor F53 + IL-1β, 25 μ/ml
# [3] = Table 2, donor F53 + IL-1β, 25 μg/ml
# [4] = Table 1, donor F53 + IL-1β, 10 μ/ml
# [5] = Table 2, donor F53 + IL-1β, 10 μg/ml
compound,measurement,setting,value
"CO[C@H]1O[C@H](COS(=O)(=O)[O-])[C@@H](O)[C@H](O[C@@H]2O[C@H](C(=O)[O-])[C@@H](O)[C@H](O)[C@H]2O)[C@H]1NC(C)=O.[Na+].[Na+] [Ib, Methyl 2-acetamido-2-deoxy-3-O-(β-D-glucopyranosyluronic acid)-6-O-sulfo-α-D-glucopyranoside, disodium salt]",AGGR (aggrecan),aggrecan; [2],14.41 MFI
same,AGGR (aggrecan),"aggrecan; donor F16 + IL-1β, 25 μ/ml",48.77 MFI
same,COLL (type II collagen),type II collagen; [2],1.00 MFI
same,COLL (type II collagen),"type II collagen; donor F16 + IL-1β, 25 μ/ml",2.92 MFI
same,IL-1α,IL-1α; [2],44.24 MFI
same,IL-1α,"IL-1α; donor F16 + IL-1β, 25 μ/ml",19.83 MFI
same,IL-1β,IL-1β; [2],2.92 MFI
same,IL-1β,"IL-1β; donor F16 + IL-1β, 25 μ/ml",1.03 MFI
same,MMP-13,MMP-13; [2],17.67 MFI
same,MMP-13,"MMP-13; donor F16 + IL-1β, 25 μ/ml",22.49 MFI
same,overall conclusion on effect on cartilage,[1],cartilage structure modifying effects
"CO[C@H]1O[C@H](COS(=O)(=O)O)[C@@H](OS(=O)(=O)O)[C@H](O[C@@H]2O[C@H](C(=O)O)[C@@H](O)[C@H](O)[C@H]2O)[C@H]1NC(C)=O [Ic, Methyl 2-acetamido-2-deoxy-3-O-(β-D-glucopyranosyluronic acid)-4,6-di-O-sulfo-α-D-glucopyranoside, trisodium salt]",AGGR (aggrecan),aggrecan; [3],18.42 MFI
same,AGGR (aggrecan),"aggrecan; donor F73 + IL-1β, 25 μg/ml",59.82 MFI
same,COLL (type II collagen),type II collagen; [3],0.97 MFI
same,COLL (type II collagen),"type II collagen; donor F73 + IL-1β, 25 μg/ml",2.45 MFI
same,IL-Iα,IL-1α; [3],44.69 MFI
same,IL-Iα,"IL-1α; donor F73 + IL-1β, 25 μg/ml",14.92 MFI
same,IL-1β,IL-1β; [3],3.63 MFI
same,IL-1β,"IL-1β; donor F73 + IL-1β, 25 μg/ml",0.45 MFI
same,MMP-13,MMP-13; [3],19.62 MFI
same,MMP-13,"MMP-13; donor F73 + IL-1β, 25 μg/ml",18.92 MFI
same,overall conclusion on effect on cartilage,[1],cartilage structure modifying effects
chondroitin polysulphate [CPS],change in accumulation of aggrecan in the CAM,aggrecan,statistically significant increase
same,AGGR (aggrecan),aggrecan; [4],19.47 MFI
same,AGGR (aggrecan),aggrecan; [5],19.47 MFI
same,AGGR (aggrecan),"aggrecan; donor F16 + IL-1β, 10 μ/ml",46.41 MFI
same,AGGR (aggrecan),"aggrecan; donor F73 + IL-1β, 10 μg/ml",24.71 MFI
same,change in accumulation of type II collagen in the CAM,type II collagen,statistically significant increase
same,COLL (type II collagen),type II collagen; [4],2.12 MFI
same,COLL (type II collagen),type II collagen; [5],2.12 MFI
same,COLL (type II collagen),"type II collagen; donor F16 + IL-1β, 10 μ/ml",2.31 MFI
same,COLL (type II collagen),"type II collagen; donor F73 + IL-1β, 10 μg/ml",1.96 MFI
same,change in levels of IL-1α,IL-1α,statistically significant decrease
same,IL-1α,IL-1α; [4],43.84 MFI
same,IL-Iα,IL-1α; [5],43.84 MFI
same,IL-1α,"IL-1α; donor F16 + IL-1β, 10 μ/ml",16.94 MFI
same,IL-Iα,"IL-1α; donor F73 + IL-1β, 10 μg/ml",16.43 MFI
same,change in levels of IL-1β,IL-1β,statistically significant decrease
same,IL-1β,IL-1β; [4],2.68 MFI
same,IL-1β,IL-1β; [5],2.68 MFI
same,IL-1β,"IL-1β; donor F16 + IL-1β, 10 μ/ml",1.18 MFI
same,IL-1β,"IL-1β; donor F73 + IL-1β, 10 μg/ml",0.45 MFI
same,change in levels of MMP-13,MMP-13,statistically significant decrease
same,MMP-13,MMP-13; [4],11.82 MFI
same,MMP-13,MMP-13; [5],11.82 MFI
same,MMP-13,"MMP-13; donor F16 + IL-1β, 10 μ/ml",23.20 MFI
same,MMP-13,"MMP-13; donor F73 + IL-1β, 10 μg/ml",22.11 MFI
chondroitin sulphate [CS],change in accumulation of aggrecan in the CAM,aggrecan,statistically significant increase
same,AGGR (aggrecan),aggrecan; [4],15.09 MFI
same,AGGR (aggrecan),aggrecan; [5],15.09 MFI
same,AGGR (aggrecan),"aggrecan; donor F16 + IL-1β, 10 μ/ml",47.39 MFI
same,AGGR (aggrecan),"aggrecan; donor F73 + IL-1β, 10 μg/ml",28.72 MFI
same,change in accumulation of type II collagen in the CAM,type II collagen,statistically significant increase
same,COLL (type II collagen),type II collagen; [4],1.23 MFI
same,COLL (type II collagen),type II collagen; [5],1.23 MFI
same,COLL (type II collagen),"type II collagen; donor F16 + IL-1β, 10 μ/ml",2.97 MFI
same,COLL (type II collagen),"type II collagen; donor F73 + IL-1β, 10 μg/ml",1.45 MFI
same,change in levels of IL-1α,IL-1α,statistically significant decrease
same,IL-1α,IL-1α; [4],45.41 MFI
same,IL-Iα,IL-1α; [5],45.41 MFI
same,IL-1α,"IL-1α; donor F16 + IL-1β, 10 μ/ml",17.09 MFI
same,IL-Iα,"IL-1α; donor F73 + IL-1β, 10 μg/ml",17.49 MFI
same,change in levels of IL-1β,IL-1β,statistically significant decrease
same,IL-1β,IL-1β; [4],3.06 MFI
same,IL-1β,IL-1β; [5],3.06 MFI
same,IL-1β,"IL-1β; donor F16 + IL-1β, 10 μ/ml",1.17 MFI
same,IL-1β,"IL-1β; donor F73 + IL-1β, 10 μg/ml",0.47 MFI
same,change in levels of MMP-13,MMP-13,statistically significant decrease
same,MMP-13,MMP-13; [4],14.70 MFI
same,MMP-13,MMP-13; [5],14.70 MFI
same,MMP-13,"MMP-13; donor F16 + IL-1β, 10 μ/ml",23.34 MFI
same,MMP-13,"MMP-13; donor F73 + IL-1β, 10 μg/ml",21.12 MFI
